Laboratory results reported in PubChem BioAssay AID1963856 (Molecular Pharmacology Branch, DTP, NCI, 2024).

Test system: LG0567-F671-PDC KRAS tumor spheroid viability
Assay: Anticancer human tumor LG0567-F671-PDC patient-derived lung adenocarcinoma cell line growth inhibition [KRAS2]
Conditions: spheroids with HUVEC and MSC; for IC50: curve of first compound; for viability, T/C: stronger effect = lower value
Method in brief: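 Combination screen of spheroid viability in tumor-cell co-cultures with endothelial (HUVEC) and mesenchymal stem cell stroma. Each agent was tested in half-log dilutions, topping at clinical Cmax or at 10 microM without a known Cmax.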

[1] = second compound 0.1 µM, first compound 0.0316 µM
[2] = second compound 0.1 µM, first compound 0.1 µM
[3] = second compound 0.1 µM, first compound 0.316 µM
[4] = second compound 0.1 µM, first compound 1 µM
[5] = second compound 0.1 µM, first compound 3.16 µM
[6] = second compound 0.1 µM, first compound 10 µM
[7] = second compound 0.316 µM, first compound 0.0316 µM
[8] = second compound 0.316 µM, first compound 0.1 µM
[9] = second compound 0.316 µM, first compound 0.316 µM
[10] = second compound 0.316 µM, first compound 1 µM
[11] = second compound 0.316 µM, first compound 3.16 µM
[12] = second compound 0.316 µM, first compound 10 µM
[13] = second compound 1 µM, first compound 0.0316 µM
[14] = second compound 1 µM, first compound 0.1 µM
[15] = second compound 1 µM, first compound 0.316 µM
[16] = second compound 1 µM, first compound 1 µM
[17] = second compound 1 µM, first compound 3.16 µM
[18] = second compound 1 µM, first compound 10 µM
[19] = second compound 3.16 µM, first compound 0.0316 µM
[20] = second compound 3.16 µM, first compound 0.1 µM
[21] = second compound 3.16 µM, first compound 0.316 µM
[22] = second compound 3.16 µM, first compound 1 µM
[23] = second compound 3.16 µM, first compound 3.16 µM
[24] = second compound 3.16 µM, first compound 10 µM
[25] = second compound 0.0316 µM, first compound 0.0316 µM
[26] = second compound 0.0316 µM, first compound 0.1 µM
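Note: drug exposure lasted seven days after spheroids formed for three days.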
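Throughout, for viability, T/C: 100% = DMSO vehicle control viability.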

O=C(c1cc(Cc2n[nH]c(=O)c3ccccc23)ccc1F)N1CCN(C(=O)C2CC2)CC1 + COc1cc2nc(C)nc(NC(C)c3cc(N)cc(C(F)(F)F)c3)c2cc1OC1CCOC1
IC50 (second compound 0.1 µM): > 10000 nM | IC50 (second compound 0.316 µM): > 10000 nM | IC50 (second compound 1 µM): > 10000 nM | IC50 (second compound 3.16 µM): > 10000 nM | IC50 (second compound 10 µM): > 10000 nM | viability, T/C [1]: 84.3% | viability, T/C [2]: 108% | viability, T/C [3]: 81.8% | viability, T/C [4]: 109% | viability, T/C [5]: 96.8% | viability, T/C [6]: 70.3% | viability, T/C [7]: 68.5% | viability, T/C [8]: 58.5% | viability, T/C [9]: 67.8% | viability, T/C [10]: 64% | viability, T/C [11]: 57.4% | viability, T/C [12]: 70.5% | viability, T/C [13]: 102% | viability, T/C [14]: 117% | viability, T/C [15]: 98% | viability, T/C [16]: 94.1% | viability, T/C [17]: 95% | viability, T/C [18]: 81.5% | viability, T/C [19]: 69.3% | viability, T/C [20]: 68.7% | viability, T/C [21]: 72.8% | viability, T/C [22]: 63% | viability, T/C [23]: 68.8% | viability, T/C [24]: 61.5% | viability, T/C (second compound 10 µM, first compound 0.0316 µM): 78.7% | viability, T/C (second compound 10 µM, first compound 0.1 µM): 63.2% | viability, T/C (second compound 10 µM, first compound 0.316 µM): 68% | viability, T/C (second compound 10 µM, first compound 1 µM): 63.2% | viability, T/C (second compound 10 µM, first compound 3.16 µM): 53.1% | viability, T/C (second compound 10 µM, first compound 10 µM): 56.1%

CC(C)n1nc(-c2ccc3oc(N)nc3c2)c2c(N)ncnc21 + C=CC(=O)N1CCN(c2nc(OCC3CCCN3C)nc3c2CCN(c2cccc4cccc(C)c24)C3)CC1CC#N
IC50 (second compound 0.0316 µM): < 0.316 nM | IC50 (second compound 0.1 µM): < 0.316 nM | IC50 (second compound 0.316 µM): < 0.316 nM | IC50 (second compound 1 µM): < 0.316 nM | IC50 (second compound 3.16 µM): < 0.316 nM | viability, T/C (second compound 0.0316 µM, first compound 0.000316 µM): 33.2% | viability, T/C (second compound 0.0316 µM, first compound 0.001 µM): 28.2% | viability, T/C (second compound 0.0316 µM, first compound 0.00316 µM): 20.5% | viability, T/C (second compound 0.0316 µM, first compound 0.01 µM): 19.3% | viability, T/C [25]: 13.4% | viability, T/C [26]: 12.8% | viability, T/C (second compound 0.1 µM, first compound 0.000316 µM): 29.1% | viability, T/C (second compound 0.1 µM, first compound 0.001 µM): 27% | viability, T/C (second compound 0.1 µM, first compound 0.00316 µM): 18.3% | viability, T/C (second compound 0.1 µM, first compound 0.01 µM): 15.4% | viability, T/C [1]: 13.7% | viability, T/C [2]: 10.6% | viability, T/C (second compound 0.316 µM, first compound 0.000316 µM): 32.7% | viability, T/C (second compound 0.316 µM, first compound 0.001 µM): 33.5% | viability, T/C (second compound 0.316 µM, first compound 0.00316 µM): 21.2% | viability, T/C (second compound 0.316 µM, first compound 0.01 µM): 17.7% | viability, T/C [7]: 11.1% | viability, T/C [8]: 10.1% | viability, T/C (second compound 1 µM, first compound 0.000316 µM): 37.6% | viability, T/C (second compound 1 µM, first compound 0.001 µM): 31.6% | viability, T/C (second compound 1 µM, first compound 0.00316 µM): 25.6% | viability, T/C (second compound 1 µM, first compound 0.01 µM): 14.4% | viability, T/C [13]: 12.5% | viability, T/C [14]: 9.9% | viability, T/C (second compound 3.16 µM, first compound 0.000316 µM): 35% | viability, T/C (second compound 3.16 µM, first compound 0.001 µM): 11.4% | viability, T/C (second compound 3.16 µM, first compound 0.00316 µM): 14.5% | viability, T/C (second compound 3.16 µM, first compound 0.01 µM): 5.93% | viability, T/C [19]: 5.55% | viability, T/C [20]: 2.27%

CC1(C)CCC(CN2CCN(c3ccc(C(=O)NS(=O)(=O)c4ccc(NCC5CCOCC5)c([N+](=O)[O-])c4)c(Oc4cnc5[nH]ccc5c4)c3)CC2)=C(c2ccc(Cl)cc2)C1 + C=CC(=O)N1CCN(c2nc(OCC3CCCN3C)nc3c2CCN(c2cccc4cccc(C)c24)C3)CC1CC#N
IC50 (second compound 0.0316 µM): < 31.6 nM | IC50 (second compound 0.1 µM): < 31.6 nM | IC50 (second compound 0.316 µM): < 31.6 nM | IC50 (second compound 1 µM): < 31.6 nM | IC50 (second compound 3.16 µM): < 31.6 nM | viability, T/C [25]: 31.1% | viability, T/C [26]: 37.4% | viability, T/C (second compound 0.0316 µM, first compound 0.316 µM): 35% | viability, T/C (second compound 0.0316 µM, first compound 1 µM): 39.5% | viability, T/C (second compound 0.0316 µM, first compound 3.16 µM): 12.7% | viability, T/C (second compound 0.0316 µM, first compound 10 µM): 5.63% | viability, T/C [1]: 30.2% | viability, T/C [2]: 36.3% | viability, T/C [3]: 29.7% | viability, T/C [4]: 28.7% | viability, T/C [5]: 10.7% | viability, T/C [6]: 5.62% | viability, T/C [7]: 34% | viability, T/C [8]: 32.6% | viability, T/C [9]: 32% | viability, T/C [10]: 27.7% | viability, T/C [11]: 6.23% | viability, T/C [12]: 2.16% | viability, T/C [13]: 34.2% | viability, T/C [14]: 33.5% | viability, T/C [15]: 33.4% | viability, T/C [16]: 31.9% | viability, T/C [17]: 2.97% | viability, T/C [18]: 0.47% | viability, T/C [19]: 21.8% | viability, T/C [20]: 16.1% | viability, T/C [21]: 8.41% | viability, T/C [22]: 0.74% | viability, T/C [23]: 0.13% | viability, T/C [24]: 0.89%
